# Assays:
# corn = assay: Test B pre/postemergence corn; assay type: in vivo, Zea mays
# In short: (§1)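 Test chemicals in a non-phytotoxic solvent mixture with surfactant were sprayed preemergence onto planted seeds and postemergence onto plants 2 to 18 cm tall (1- to 4-leaf stage). After twelve to sixteen days in a greenhouse, injury was visually rated against untreated controls from 0 (no effect) to 10 (complete control).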
# bamyardgrass = assay: Test B flood test barnyardgrass; assay type: in vivo, Echinochloa crus-galli
# In short: (§2)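 Read-out is a visual response score from 0 (no effect) to 10 (complete control), assigned by comparison with untreated controls. Treatment was applied at the 2-leaf stage, and plants stayed in the greenhouse for twelve to sixteen days before scoring.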
# giant foxtail = assay: Test B pre/postemergence giant foxtail; assay type: in vivo, Setaria faberii
# In short: as §1
# smallflower flatsedge = assay: Test B flood test smallflower flatsedge; assay type: in vivo, Cyperus difformis
# In short: as §2
# cocklebur = assay: Test B pre/postemergence cocklebur; assay type: in vivo, Xanthium strumarium
# In short: as §1
# wild oat = assay: Test B pre/postemergence wild oat; assay type: in vivo, Avena fatua
# In short: as §1
# blackgrass = assay: Test B pre/postemergence blackgrass; assay type: in vivo, Alopecurus myosuroides
# In short: as §1
# duck salad = assay: Test B flood test duck salad; assay type: in vivo, Heteranthera limosa
# In short: as §2
# surinam grass = assay: Test B pre/postemergence surinam grass; assay type: in vivo, Brachiaria decumbens
# In short: as §1
# sugar beet = assay: Test B pre/postemergence sugar beet; assay type: in vivo, Beta vulgaris
# In short: as §1
# morningglory = assay: Test B pre/postemergence morningglory; assay type: in vivo, Ipomoea hederacea
# In short: as §1
# bedstraw = assay: Test B pre/postemergence bedstraw; assay type: in vivo, Galium aparine
# In short: as §1
# purple nutsedge = assay: Test B pre/postemergence purple nutsedge; assay type: in vivo, Cyperus rotundus
# In short: as §1
# soybean = assay: Test B pre/postemergence soybean; assay type: in vivo, Glycine max
# In short: as §1
# crabgrass = assay: Test B pre/postemergence crabgrass; assay type: in vivo, Digitaria sanguinalis
# In short: as §1
# velvetleaf = assay: Test B pre/postemergence velvetleaf; assay type: in vivo, Abutilon theophrasti
# In short: as §1
# pigweed = assay: Test B pre/postemergence pigweed; assay type: in vivo, Amaranthus retroflexus
# In short: as §1
# wheat = assay: Test B pre/postemergence wheat; assay type: in vivo, Triticum aestivum
# In short: as §1
# rape = assay: Test B pre/postemergence rape; assay type: in vivo, Brassica napus
# In short: as §1
# rice = assay: Test B flood test rice; assay type: in vivo, Oryza sativa
# In short: as §2
# [1] = Postemergence, Rate 62 g/ha, scale of 0 to 10, 0 is no effect, 10 is complete control
# [2] = Postemergence, Rate 125 g/ha, scale of 0 to 10 where 0 is no effect and 10 is complete control
# [3] = Postemergence, Rate 250 g/ha, scale of 0 to 10, 0 is no effect, 10 is complete control
# [4] = Postemergence, Rate 500 g/ha, scale of 0 to 10 where 0 is no effect and 10 is complete control
# [5] = Preemergence, Rate 62 g/ha, scale 0 to 10 (0 no effect, 10 complete control)
# [6] = Preemergence, Rate 125 g/ha, scale of 0 to 10 where 0 is no effect and 10 is complete control
# [7] = Preemergence, Rate 500 g/ha, scale of 0 to 10 where 0 is no effect and 10 is complete control
# [8] = Rate 62 g/ha, flood test species, Pre-emergence, visual evaluation after twelve to sixteen days
# [9] = Rate 125 g/ha, under heading Pre-emergence, flood test species, visual evaluation after twelve to sixteen days
# [10] = Rate 250 g/ha, Pre-emergence (flood test species), scale 0 to 10, 0 is no effect, 10 is complete control
# [11] = Rate 500 g/ha, Pre-emergence section of Table B, 0 to 10 scale (0 no effect, 10 complete control)
structure (smiles),measurement,setting,value
CC(C)N(C(=O)n1oc(=O)n(CC(=O)N(C)C)c1=O)c1ccccc1 [Compound 588],Corn plant response rating,corn; [1],0
same,"Plant response rating, Corn",corn; [2],0
same,Corn plant response rating,corn; [3],0
same,"Plant response rating, Corn",corn; [4],0
same,Corn plant response rating,corn; [5],0
same,Corn plant response rating,corn; [6],0
same,Corn plant response rating (0 to 10 scale),"corn; Preemergence, Rate 250 g/ha",0
same,Corn plant response rating,corn; [7],5
same,"Plant response rating, Barnyardgrass (0 to 10 scale, 0 is no effect, 10 is complete control)",bamyardgrass; [8],0
same,"Barnyardgrass plant response rating (0 to 10 scale, 0 is no effect, 10 is complete control)",bamyardgrass; [9],0
same,Barnyardgrass plant response rating,bamyardgrass; [10],0
same,Barnyardgrass plant response rating,bamyardgrass; [11],0
same,Giant foxtail plant response rating,giant foxtail; [1],0
same,"Plant response rating, Giant foxtail",giant foxtail; [2],4
same,Giant foxtail plant response rating,giant foxtail; [3],8
same,"Plant response rating, Giant foxtail",giant foxtail; [4],8
same,Giant foxtail plant response rating,giant foxtail; [5],7
same,Giant foxtail plant response rating,giant foxtail; [6],8
same,Giant foxtail plant response rating,giant foxtail; [7],10
same,"Plant response rating, S. Flatsedge (0 to 10 scale, 0 is no effect, 10 is complete control)",smallflower flatsedge; [8],0
same,"S. Flatsedge plant response rating (0 to 10 scale, 0 is no effect, 10 is complete control)",smallflower flatsedge; [9],0
same,S. Flatsedge plant response rating,smallflower flatsedge; [10],0
same,S. Flatsedge plant response rating,smallflower flatsedge; [11],0
same,Cocklebur plant response rating,cocklebur; [1],0
same,"Plant response rating, Cocklebur",cocklebur; [2],0
same,Cocklebur plant response rating,cocklebur; [3],0
same,"Plant response rating, Cocklebur",cocklebur; [4],0
same,Cocklebur plant response rating,cocklebur; [5],0
same,Cocklebur plant response rating,cocklebur; [6],0
same,Cocklebur plant response rating (0 to 10 scale),"cocklebur; Preemergence, Rate 250 g/ha",0
same,Cocklebur plant response rating,cocklebur; [7],0
same,"Plant response rating, Wild oats",wild oat; [2],0
same,Wild oats plant response rating,wild oat; [3],0
same,"Plant response rating, Wild oats",wild oat; [4],0
same,Wild oats plant response rating,wild oat; [5],0
same,Wild oats plant response rating,wild oat; [6],0
same,Wild oats plant response rating,wild oat; [7],7
same,Blackgrass plant response rating,blackgrass; [1],0
same,"Plant response rating, Blackgrass",blackgrass; [2],0
same,Blackgrass plant response rating,blackgrass; [3],6
same,"Plant response rating, Blackgrass",blackgrass; [4],8
same,Blackgrass plant response rating,blackgrass; [5],0
same,Blackgrass plant response rating,blackgrass; [6],3
same,Blackgrass plant response rating (0 to 10 scale),"blackgrass; Preemergence, Rate 250 g/ha",5
same,Blackgrass plant response rating,blackgrass; [7],8
same,"Plant response rating, Ducksalad (0 to 10 scale, 0 is no effect, 10 is complete control)",duck salad; [8],0
same,"Ducksalad plant response rating (0 to 10 scale, 0 is no effect, 10 is complete control)",duck salad; [9],0
same,Ducksalad plant response rating,duck salad; [10],0
same,Ducksalad plant response rating,duck salad; [11],0
same,B. signalgrass plant response rating,surinam grass; [1],0
same,"Plant response rating, B. signalgrass",surinam grass; [2],0
same,B. signalgrass plant response rating,surinam grass; [3],4
same,"Plant response rating, B. signalgrass",surinam grass; [4],8
same,B. signalgrass plant response rating,surinam grass; [5],0
same,B. signalgrass plant response rating,surinam grass; [6],1
same,"B. signalgrass plant response rating (0 to 10 scale, 0 is no effect, 10 is complete control)","surinam grass; Preemergence, Rate 250 g/ha",5
same,B. signalgrass plant response rating,surinam grass; [7],8
same,"Plant response rating, Sugarbeets",sugar beet; [2],0
same,Sugarbeets plant response rating,sugar beet; [3],0
same,"Plant response rating, Sugarbeets",sugar beet; [4],0
same,Sugarbeets plant response rating,sugar beet; [5],0
same,Sugarbeets plant response rating,sugar beet; [6],0
same,Sugarbeets plant response rating,sugar beet; [7],6
same,Morningglory plant response rating,morningglory; [1],7
same,"Plant response rating, Morningglory",morningglory; [2],7
same,Morningglory plant response rating,morningglory; [3],10
same,"Plant response rating, Morningglory",morningglory; [4],10
same,Morningglory plant response rating,morningglory; [5],0
same,Morningglory plant response rating,morningglory; [6],0
same,Morningglory plant response rating,morningglory; [7],0
same,Bedstraw plant response rating,bedstraw; [1],0
same,Bedstraw plant response rating (0 to 10 scale),"bedstraw; Preemergence, Rate 250 g/ha",0
same,Nutsedge plant response rating,purple nutsedge; [1],0
same,"Plant response rating, Nutsedge",purple nutsedge; [2],0
same,"Plant response rating, Nutsedge",purple nutsedge; [4],0
same,Nutsedge plant response rating,purple nutsedge; [5],0
same,Nutsedge plant response rating,purple nutsedge; [6],0
same,Nutsedge plant response rating,purple nutsedge; [7],0
same,"Plant response rating, Soybean",soybean; [2],4
same,Soybean plant response rating,soybean; [3],4
same,"Plant response rating, Soybean",soybean; [4],7
same,Soybean plant response rating,soybean; [5],0
same,Soybean plant response rating,soybean; [6],0
same,Soybean plant response rating,soybean; [7],5
same,Crabgrass plant response rating,crabgrass; [1],0
same,"Plant response rating, Crabgrass",crabgrass; [2],2
same,Crabgrass plant response rating,crabgrass; [3],6
same,Crabgrass plant response rating,crabgrass; [5],3
same,Crabgrass plant response rating,crabgrass; [6],6
same,Crabgrass plant response rating,crabgrass; [7],9
same,"Plant response rating, Velvetleaf",velvetleaf; [2],0
same,Velvetleaf plant response rating,velvetleaf; [3],0
same,"Plant response rating, Velvetleaf",velvetleaf; [4],7
same,Velvetleaf plant response rating,velvetleaf; [5],0
same,Velvetleaf plant response rating,velvetleaf; [6],0
same,Velvetleaf plant response rating,velvetleaf; [7],5
same,"Plant response rating, Redroot pigweed",pigweed; [2],0
same,Redroot pigweed plant response rating,pigweed; [3],0
same,"Plant response rating, Redroot pigweed",pigweed; [4],0
same,Redroot pigweed plant response rating,pigweed; [5],0
same,Redroot pigweed plant response rating,pigweed; [6],1
same,Redroot pigweed plant response rating,pigweed; [7],9
same,"Plant response rating, Wheat",wheat; [2],0
same,Wheat plant response rating,wheat; [3],0
same,"Plant response rating, Wheat",wheat; [4],3
same,Wheat plant response rating,wheat; [5],0
same,Wheat plant response rating,wheat; [6],2
same,Wheat plant response rating,wheat; [7],8
same,Rape plant response rating,rape; [1],0
same,"Plant response rating, Rape",rape; [2],0
same,Rape plant response rating,rape; [3],0
same,"Plant response rating, Rape",rape; [4],0
same,Rape plant response rating,rape; [5],0
same,Rape plant response rating,rape; [6],0
same,Rape plant response rating,rape; [7],0
same,"Plant response rating, Rice (0 to 10 scale, 0 is no effect, 10 is complete control)",rice; [8],0
same,"Rice plant response rating (0 to 10 scale, 0 is no effect, 10 is complete control)",rice; [9],0
same,Rice plant response rating,rice; [10],0
same,Rice plant response rating,rice; [11],0

# Reference: patent publication US6737383B1, “Herbicidal oxadiazolidines” (priority 1999, dated 2004)
